# Read-outs that look alike come from different tables or passages of the source. Square brackets hold non-standard residues; d marks the D form. Peptide text beside a SMILES is read from it. dBip(4'-Cl) = N[C@H](Cc1ccc(-c2ccc(Cl)cc2)cc1)C(=O)O
# Experiments:
# S. aureus NARSA VRS3a = assay: microbe, parasite or virus in culture; type: cell-based
# Method: (§1) The antibacterial potency of Compound 34 was measured using the in vitro broth microdilution assay under assay conditions described by the Clinical and Laboratory Standards Institute. […] The test substance was dissolved in 100% DMSO (unless stated below), suspended completely by sonication or vortexing, diluted by 2-fold serial titrations in the same vehicle, for a total of 11 test concentrations. A 4 μL aliquot of each dilution was added to 196 μL of broth medium seeded with the organism suspension in wells of a 96 well plate (bacterial count: 2-8×10^5 colony forming units/mL final). The final volume was 200 μL in each well and the final DMSO concentration was 2%. The incubation time is 1 day at 36° C. All strains tested underwent aerobic respiration. Following incubation, the test plates were visually examined and wells were scored for growth or complete growth inhibition to define the minimum inhibitory concentration. Each test substance was evaluated in duplicate and the results below are the duplicate test values. Vehicle-control and an active reference agent were used as blank and positive controls, respectively.
# S. aureus NARSA VRS11b = assay: microbe, parasite or virus in culture; type: cell-based
# Method: as §1
# S. aureus ECL 2963646 = assay: microbe, parasite or virus in culture; type: cell-based
# Method: as §1
# S. aureus NARSA VRS1 = assay: microbe, parasite or virus in culture; type: cell-based
# Method: as §1
# S. aureus NARSA VRS2 = assay: microbe, parasite or virus in culture; type: cell-based
# Method: as §1
# [1] = test system: S. aureus (ATCC BAA-1556); assay: microbe, parasite or virus in culture
# Method: S. aureus (BAA-1556) was from ATCC. Mupirocin (Cat # M2955) was purchased from TCI chemicals (India) Pvt. […] Ltd, India, Cation adjusted Mueller Hinton broth (CAMHB) and Mueller Hinton Agar (MHA) (Cat # M1657) were from HiMedia Laboratories Pvt. Ltd, India.
# The MIC assay was done based on CLSI guidelines in a microtitre plate format (1, 2). Preparation and dilution of Test Item (TI) stock solutions: A 1280 μg/ml stock of Compound 34 was prepared by dissolving 1.28 mg in 1.0 ml of sterile water to obtain the Master Stock (MS) solution. The MS solution was diluted 2-fold to obtain a series of Working Stock (WS) solutions (Table 7). The final concentration of solvent in the assay was 2.5% and the assay volume was […].
# Preparing the inoculum: One day before initiation of experiment, an isolated colony of S. aureus (ATCC BAA-1556) was inoculated into sterile CAMHB and incubated at 37° C. to exponential phase. After incubation, the turbidity was adjusted to that of a 0.5 McFarland Standard (approximately equivalent to 1.0×10^8 CFU/ml) and diluted to ˜1.0×10^6 CFU/ml.
# MIC Assay: The MIC assay was performed in a 96 well microtitre plate in a total assay volume of 100 μl (Table 7). Each well containing different concentrations of test compound (concentration range between 0.015625 and 16.0 μg/ml) was inoculated with 50 μl of bacterial suspension (prepared from the inoculum grown overnight and adjusted approximately to 5.0×10^5 CFU/ml) along with culture control (CC, culture in broth), broth control (BC, broth only), and vehicle control (VC, 2.5% solvent in broth plus culture). The plate was incubated at 37° C. for 24 hr and turbidity was measured spectrophotometrically (Absorbance microplate reader, BioTek® India, ELx800™) at 600 nm and visually. The experiment was done in duplicates. The inoculum was also plated for enumeration of bacteria. The MIC was defined as the lowest concentration of test compound that prevented bacterial growth (lack of turbidity by OD at 600 nm and visual inspection relative to no growth control).
# [2] = test system: Propionibacterium acnes ATCC 29399; assay: microbe, parasite or virus in culture; type: cell-based; details: ATCC 29399
# Method: The antibacterial potency of Compound 34 was measured using the in vitro broth microdilution assay under assay conditions described by the Clinical and Laboratory Standards Institute. […] The test substance was dissolved in 100% DMSO (unless stated below), suspended completely by sonication or vortexing, diluted by 2-fold serial titrations in the same vehicle, for a total of 10 test concentrations (final concentrations: 100, 50, 25, 12.5, 6.25, 3.125, 1.56, 0.78, 0.39, 0.2 μM). A 4 μL aliquot of each dilution was added to 196 μL of broth medium seeded with the organism suspension in wells of a 96 well plate (bacterial count: 2-8×10^5 colony forming units/mL final). The final volume was 200 μL in each well and the final DMSO concentration was 2 percent. The incubation time is either 1 or 2 days at 36° C. All strains tested underwent aerobic respiration, except for ATCC BAA-1805 and ATCC 29399. Following incubation, the test plates were visually examined and wells were scored for growth or complete growth inhibition to define the minimum inhibitory concentration. Each test substance was evaluated in duplicate and the results below are the duplicate test values. Vehicle-control and an active reference agent were used as blank and positive controls, respectively.
# [3] = test system: Mupirocin-resistant MRSA (ATCC-BAA-1556); assay: Time-kill assay at 4xMIC (FIG. 1); type: cell-based, Staphylococcus aureus; details: 4×MIC
# [4] = test system: Mupirocin-resistant MRSA (ATCC-BAA-1556); assay: Bactericidal/static determination assay at 4xMIC (FIG. 2); type: cell-based, Staphylococcus aureus; details: 4×MIC
smiles,measurement,setting,value
N=C(N)NCCC[C@@H](NC(=O)[C@@H](Cc1ccc(-c2ccc(Cl)cc2)cc1)NC(=O)[C@@H](CCCNC(=N)N)NC(=O)[C@H](N)Cc1ccc(-c2ccc(Cl)cc2)cc1)C(N)=O [Compound 34] (H-[dBip(4'-Cl)][dR][dBip(4'-Cl)][dR]-NH2),MIC,"S. aureus NARSA VRS3a; NARSA VRS3a, read-out: MIC",2.37 µM
same,MIC,"S. aureus NARSA VRS3a; S. aureus NARSA VRS3a, CAMHB II",2.0 µg/mL
same,MIC,"S. aureus NARSA VRS11b; NARSA VRS11b, read-out: MIC",1.18 µM
same,MIC,"S. aureus NARSA VRS11b; S. aureus NARSA VRS11b, CAMHB II",1.0 µg/mL
same,MIC,"S. aureus ECL 2963646; ECL 2963646, read-out: MIC",2.37 µM
same,MIC,"S. aureus ECL 2963646; S. aureus ECL 2963646, CAMHB II",2.0 µg/mL
same,MIC,"S. aureus NARSA VRS1; NARSA VRS1, read-out: MIC",2.37 µM
same,MIC,"S. aureus NARSA VRS1; S. aureus NARSA VRS1, CAMHB II",2.0 µg/mL
same,MIC,"S. aureus NARSA VRS2; NARSA VRS2, read-out: MIC",2.37 µM
same,MIC,"S. aureus NARSA VRS2; S. aureus NARSA VRS2, CAMHB II",2.0 µg/mL
same,Mean MIC,"[1]; ATCC BAA-1556, 24 h",2.37 µM
same,Mean MIC,"[1]; S. aureus (ATCC BAA-1556), CAMHB, 37° C., 24 hr",2.00 µg/mL
same,MIC,[2],1.56 µM
same,"time-kill: rate of killing compared to Linezolid, Retapamulin and Vancomycin",[3],"more rapidly as compared to Linezolid, Retapamulin and Vancomycin"
same,"bactericidal activity compared to Linezolid, Retapamulin and Vancomycin",[4],"higher bactericidal activity than Linezolid, Retapamulin and Vancomycin"

# From patent US20200157144A1, “ANTIMICROBIAL PEPTIDOMIMETICS” (priority 2017, published 2020)
